Experimental findings from US20160083776A1, “Methods for Measuring Polymerase Activity Useful for Sensitive, Quantitative Measurements of Any Polymerase Extension Activity and for Determining the Presence of Viable Cells” (Zeus Scientific, Inc., priority 2012, published 2016) are described below.

Assay type in all cases: biochemical
One experiment has as its target T1, DNA polymerase I (Escherichia coli, UniProt P00582).
T1 construct: purchased New England Biolabs MO209
Description: DPE-PCR assay, ddCTP termination of purified DNA polymerase extension activity. The following applies: 50 μM ddCTP substituted for dCTP in the extension reaction mix; 37° C., 20 minutes. How it is done: DNA Pol I (NEB cat# MO209L), Klenow (NEB cat# MO210S) and Klenow exo(−) (NEB cat# MO212S) were diluted to the indicated U/μL stock in sterile T.E. pH 8.0. To begin, 2 μL of DNA polymerase stock at each concentration were placed into a 50 μL DNA polymerase extension reaction mixture containing the following components: 50 μM dNTP, 20 mM Tris pH 8.0, 10 mM Ammonium sulfate, 10 mM Potassium chloride, 2 mM Magnesium sulfate, 1% BSA, 0.1% Triton X-100, 0.1% Tween 20, and 0.001 μM pre-annealed DNA substrate (described above. Two micro-liters of T.E. (without DNA polymerase) was routinely added to an additional tube containing complete DNA polymerase extension reaction mixture and is referred to as a “No Input Control” (NIC). Reactions containing DNA polymerase (or No Input Controls) were vortexed briefly and placed at 37° C. for 20 minutes. After 20 minutes, 3 μL of each reactions containing purified DNA polymerase were immediately placed into a qPCR reaction (see below for qPCR conditions).
DNA polymerase extension reactions were prepared as described above with a 50 μM [dATP, dGTP, dTTP] mixture supplemented with either 50 μM dCTP or 50 μM ddCTP (Affymetrix #77332.) 50 μL DNA polymerase extension reactions with a 50 μM [dATP, dGTP, dTTP] mixture, supplemented with either dCTP or ddCTP, were spiked with 2 μL of a 1×10^−9 U/μL stock of DNA polymerase I (New England Biolabs # MO209). […]

Experiment [1] relates to E. coli-derived DNA polymerase activity. Description: Bead lysis-coupled DPE-PCR, ddCTP substitution, E. coli lysate. The following applies: 50 μM ddCTP substituted for dCTP, compared to standard reaction mix; crude bead mill lysate. How it is done: (§1) FIG. 5 illustrates that detection of bacteria by DPE-PCR is blocked by ddCTP. 5 μL of E. coli suspension were added to bead lysis-coupled DNA polymerase assays comprised of a dNTP mix containing either 50 μM dCTP or 50 μM ddCTP. DPE-PCR curves representing E. coli-derived DNA polymerase activity is presented. Plots were generated using the average qPCR Ct values from triplicate reactions at the indicated conditions. ddCTP termination and dCTP rescue experiments were performed for S. aureus exactly as described above for E. coli.
(§2) S. aureus and E. coli cultures were grown to an OD600 of 1.0±0.2 (approximately 1×10^9 cfu/mL.) For each organism, 1 mL of culture was pelleted and washed three times in T.E. Bacterial suspensions were serially diluted in T.E., and 5 μL of each stock were added to bead mill lysis tubes containing 50 μL DNA polymerase extension reaction mixture (see above for composition). A titration curve of 1×10^5 to […] cfu/reaction was performed in triplicate for each organism, including triplicate reactions without bacterial suspension.
(§3) After the addition of 5 μL bacterial stock, reaction tubes were bead milled for 6 min. at 2800 rpm using a digital Vortex Genie equipped with a disrupter head (Scientific Industries). Immediately after disruption, sample tubes were placed at 37° C. for 20 minutes. […]

Experiment [2] has as its system S. aureus DNA polymerase extension activity. Description: Bead lysis-coupled DPE-PCR, ddCTP substitution, S. aureus lysate. The settings on record: 50 μM ddCTP substituted for dCTP, compared to standard reaction mix; crude bead mill lysate. How it is done:
as §1, §2, §3

T1 sequence (P00582 whole entry): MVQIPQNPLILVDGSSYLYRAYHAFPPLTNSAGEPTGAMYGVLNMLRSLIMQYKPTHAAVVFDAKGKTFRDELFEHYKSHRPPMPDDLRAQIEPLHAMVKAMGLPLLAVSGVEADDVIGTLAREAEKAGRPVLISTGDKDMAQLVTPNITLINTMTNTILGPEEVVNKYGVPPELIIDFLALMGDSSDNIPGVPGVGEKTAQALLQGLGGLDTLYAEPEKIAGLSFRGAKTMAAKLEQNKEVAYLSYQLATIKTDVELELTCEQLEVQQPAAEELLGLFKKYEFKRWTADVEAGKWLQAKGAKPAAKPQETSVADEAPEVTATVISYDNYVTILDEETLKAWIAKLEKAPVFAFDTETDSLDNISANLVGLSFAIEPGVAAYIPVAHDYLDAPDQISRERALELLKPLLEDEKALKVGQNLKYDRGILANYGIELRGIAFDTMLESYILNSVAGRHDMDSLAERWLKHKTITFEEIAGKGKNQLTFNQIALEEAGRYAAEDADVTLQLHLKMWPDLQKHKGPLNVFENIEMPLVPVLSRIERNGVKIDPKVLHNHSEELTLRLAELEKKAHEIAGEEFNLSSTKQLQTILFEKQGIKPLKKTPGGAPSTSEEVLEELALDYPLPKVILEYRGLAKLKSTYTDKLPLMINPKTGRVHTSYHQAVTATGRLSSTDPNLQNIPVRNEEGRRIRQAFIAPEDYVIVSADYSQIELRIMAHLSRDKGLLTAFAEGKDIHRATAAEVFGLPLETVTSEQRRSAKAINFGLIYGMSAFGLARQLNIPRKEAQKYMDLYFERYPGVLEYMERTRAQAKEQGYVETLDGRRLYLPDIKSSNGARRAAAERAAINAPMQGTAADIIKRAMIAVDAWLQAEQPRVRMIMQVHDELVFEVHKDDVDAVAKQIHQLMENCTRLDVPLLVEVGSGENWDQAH

For `Nc1ccn([C@H]2CC[C@@H](COP(=O)(O)OP(=O)(O)OP(=O)(O)O)O2)c(=O)n1` [ddCTP, 2′,3′-Dideoxycytidine-5′-Triphosphate], on DNA polymerase I, the “DPE-PCR assay signal generated by DNA polymerase I” value is given as “eliminates signal”. Also, the “DPE-PCR signal derived from E. coli cfu spikes” value in experiment [1] is recorded as “blocked the generation of signal”. The “DPE-PCR signal derived from S. aureus cfu spikes” value in experiment [2] was “blocked the generation of signal”.
